Results on 2 compounds are retold here after US5411976A, “New thiazolidine derivatives, process for preparing same and anti-amnestic composition containing same” (Kabushiki Kaisha Yakult Nonsha, priority 1987, dated 1995).

Non-standard residues stand in square brackets, D forms with d. Residues, ends and D or L forms follow the SMILES beside them. *: point of attachment. Thz = O=C(O)[C@@H]1CSCN1; Cbz = O=C(OCc1ccccc1)*

For assay [1], the system named is SCOP-induced amnestic rat. The assay is described as follows: Step-down type passive avoidance test in scopolamine-induced amnestic rats. It counts as in vivo, rat (Wister strain). Particulars: for Acquisition trial: Step-down latency / Acquisition trial: Number of step-down / Acquisition trial: Total time for the test: scopolamine after learning; for Retention trial: Step-down latency after 24 hours / Retention trial: Step-down latency after 48 hours: scopolamine 3.0 mg/kg i.p. after learning. How it is done:
(2) A step-down type passive avoidance test
This test was carried out by using the undermentioned apparatus (A) and test animal (B) according to the undermentioned testing method (C).
(A) Test chamber for passive avoidance response of rats
A test chamber of 200(w)×200(1) mm in area was made of transparent acrylic resin plates for observation of the inside and was provided on one side thereof with an electrically insulated platform of 150(w)×200(1)×40(h) in size and on the bottom with a grid floor made of stainless steel which was equipped with a foot-shock generator/scrumbler (HASG-101/S, Medical Agent, Inc.) capable of sending electric current to the grid floor for giving a test animal electric foot shock.
5-Weeks-old male rats of Wister strain weighing 100-145 g (Japan Clea Co., Ltd.) were used as test animals.
The passive avoidance test consists of two steps; an acquisition trial and a retention trial. […] As control, only saline was administered intraperitoneally to a group of the rats. In the acquisition trial, the rat was placed on the platform in the test chamber and, when the rat stepped down on the floor, the electric current of 4 mA was immediately sent to the grid continuously until the rat went up on the platform. At the time the rat having gone up on the platform stayed there for more than 20 seconds, the rat was regarded to have learned the situation and taken out of the test chamber. Repeating this test with another rat under the same condition, the rats learned the situation were collected as passing the test for the acquisition trial. A total time of measurement in the acquisition trial was limited to 300 seconds as maximum, and the time elapsing until the rat stepped down to the grid floor (step-down latency, SDL), the total time elapsing until the rat learned the situation and the times of step-down were measured. […] Immediately after the acquisition trial, scopolamine hydrobromide (SCOP) dissolved in saline was administered intraperitoneally in a dose of 3.0 mg/kg of body weight to the rat to prepare a SCOP-induced amnestic rat. As control, only saline was administered intraperitoneally to a group of the rats. The retention trial was carried out by putting the rat on the platform of the test chamber after the lapse of 24 and 48 hours from the acquisition trial, and the time elapsing until the rat went down to the floor (SDL) was measured. A statistical treatment of the data obtained was made according to the Student's t-test.

The target in assay [2] is T1, prolyl endopeptidase (Homo sapiens, UniProt P48147).
T1 sequence (P48147 1-710): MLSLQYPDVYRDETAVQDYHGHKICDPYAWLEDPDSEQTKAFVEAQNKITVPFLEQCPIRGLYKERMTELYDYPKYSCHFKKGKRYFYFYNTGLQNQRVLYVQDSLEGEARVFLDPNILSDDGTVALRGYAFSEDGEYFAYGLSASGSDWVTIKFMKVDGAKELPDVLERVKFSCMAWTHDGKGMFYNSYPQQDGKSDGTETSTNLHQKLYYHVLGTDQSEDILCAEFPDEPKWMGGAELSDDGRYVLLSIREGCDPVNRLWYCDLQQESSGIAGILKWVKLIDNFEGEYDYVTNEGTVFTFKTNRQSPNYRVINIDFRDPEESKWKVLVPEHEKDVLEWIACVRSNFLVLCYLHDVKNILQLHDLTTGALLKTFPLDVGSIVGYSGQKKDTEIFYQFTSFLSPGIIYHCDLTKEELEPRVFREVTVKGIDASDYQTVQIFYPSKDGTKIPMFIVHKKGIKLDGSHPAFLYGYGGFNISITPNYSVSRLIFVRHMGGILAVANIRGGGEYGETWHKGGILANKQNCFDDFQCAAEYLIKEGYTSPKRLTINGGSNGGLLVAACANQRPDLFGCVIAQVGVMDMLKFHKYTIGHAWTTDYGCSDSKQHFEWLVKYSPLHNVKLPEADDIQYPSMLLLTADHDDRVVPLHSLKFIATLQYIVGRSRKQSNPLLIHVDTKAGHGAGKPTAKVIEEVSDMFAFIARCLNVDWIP
The assay is described as follows: Inhibitory activity to prolyl endopeptidase (IC50). It counts as biochemical.

The mark [3] stands for this setting: 2.2 mg/kg i.p. one hour before acquisition trial.

As to `O=C([C@@H]1CSCN1C(=O)OCc1ccccc1)N1CSC[C@H]1CO` [Example 3, N-benzyloxycarbonyl-L-thioprolyl-L-thioprolinol], the “Acquisition trial: Step-down latency” value in assay [1] (setting [3]) worked out at 9.8 s. Besides, in assay [1] (2.2 mg/kg i.p.), the “Retention trial: Step-down latency after 24 hours” value (shortened to “Retention trial … after 24 hours”) was 238.2 s, the “Retention trial: Step-down latency after 48 hours” value (“Retention trial … after 48 hours” below) stood at 174.0 s, the “Acquisition trial: Number of step-down” value stood at 2.4 times and the “Acquisition trial: Total time for the test” value (from here on “Acquisition trial: Total time”) stood at 67.5 s. The “Inhibitory activity in vitro (in words)” value in assay [2] is given as “not effective in vitro”.
With `O=C[C@@H]1CSCN1C(=O)[C@@H]1CSCN1C(=O)OCc1ccccc1` [Example 4, N-benzyloxycarbonyl-L-thioprolyl-L-thioprolinal] (Cbz-[Thz]-[Thz]-aldehyde), the “Acquisition trial: Step-down latency” value in assay [1] (setting [3]) amounted to 7.6 s. Besides, in assay [1] (2.2 mg/kg i.p.), the “Retention trial … after 24 hours” value worked out at 170.9 s, the “Retention trial … after 48 hours” value stood at 176.5 s, the “Acquisition trial: Number of step-down” value was 2.0 times and the “Acquisition trial: Total time” value was 52.1 s. Also, in assay [1] (11.0 mg/kg i.p.), the “Retention trial … after 24 hours” value came to 245.7 s, the “Retention trial … after 48 hours” value came out at 177.0 s, the “Acquisition trial: Number of step-down” value stood at 2.2 times and the “Acquisition trial: Step-down latency” value was 8.9 s. The “Acquisition trial: Total time” value in assay [1] (11.0 mg/kg i.p.) is 57.1 s.
